Reference: patent publication US10428066B2, “Imidazo[4,5-C]pyridine and pyrrolo[2,3-C]pyridine derivatives as SSAO inhibitors” (PROXIMAGEN, LLC, priority 2013, dated 2019)

Biological target: purified recombinantly expressed human SSAO (Homo sapiens (Human), UniProt Q16853)
Assay: SSAO enzyme inhibition assay (HRP-coupled hydrogen peroxide detection or 14C-benzaldehyde detection, benzylamine substrate)
Format: biochemical
Conditions: human recombinant SSAO, RT
Experimental: All primary assays were performed at RT. with purified recombinantly expressed human SSAO. Enzyme was prepared essentially as described in Öhman et al. (Protein Expression and Purification 46 (2006) 321-331). In addition, secondary- and selectivity assays were performed using SSAO prepared from various tissues or purified rat recombinant SSAO. The enzyme activity was assayed with benzylamine as substrate by measuring either benzaldehyde production, using ^14C-labeled substrate, or by utilizing the production of hydrogen peroxide in a horseradish peroxidase (HRP) coupled reaction. Briefly, test compounds were dissolved in dimethyl sulfoxide (DMSO) to a concentration of 10 mM. Dose-response measurements were assayed by either creating 1:10 serial dilutions in DMSO to produce a 7 point curve or by making 1:3 serial dilutions in DMSO to produce 11 point curves.
In a horseradish peroxidase (HRP) coupled reaction, hydrogen peroxide oxidation of 10-acetyl-3,7-dihydroxyphenoxazine produced resorufin, which is a highly fluorescent compound (Zhout and Panchuk-Voloshina. Analytical Biochemistry 253 (1997) 169-174; Amplex® Red Hydrogen Peroxide/peroxidase Assay kit, Invitrogen A22188). Enzyme and compounds in 50 mM sodium phosphate, pH 7.4 were set to pre-incubate in flat-bottomed microtiter plates for approximately 15 min before initiating the reaction by addition of a mixture of HRP, benzylamine and Amplex reagent. Benzylamine concentration was fixed at a concentration corresponding to the Michaelis constant, determined using standard procedures. Fluorescence intensity was then measured at several time points during 1-2 h, exciting at 544 nm and reading the emission at 590 nm. For the human SSAO assay final concentrations of the reagents in the assay wells were: SSAO enzyme 1 ug/ml, benzylamine 100 uM, Amplex reagent 20 uM, HRP 0.1 U/mL and varying concentrations of test compound. The inhibition was measured as % decrease of the signal compared to a control without inhibitor (only diluted DMSO). The background signal from a sample containing no SSAO enzyme was subtracted from all data points. Data was fitted to a four parameter logistic model and IC50 values were calculated using the GraphPad Prism 4 or XLfit 4 programs.
SSAO activity was assayed using 14C-labeled benzylamine and analysed by measuring radioactive benzaldehyde. In a white 96-well optiplate (Packard), 20 uL of diluted test compound was pre-incubated at room temperature with 20 uL SSAO enzyme for approximately 15 min with continuous agitation. All dilutions were made with PBS. The reaction was initiated by adding 20 uL of the benzylamine substrate solution containing [7-14C] Benzylamine hydrochloride (CFA589, GE Healthcare). The plate was incubated for 1 h as above after which the reaction was stopped by acidification (10 uL 1M aq HCl). Then 90 uL Micro Scint-E solution (Perkin-Elmer) was added to each well and the plate was continuously mixed for 15 min. Phase separation occurred instantly and activity was read in a Topcount scintillation counter (Perkin-Elmer). In the final reaction well, the human recombinant SSAO concentration was 10 ug/ml. In order to optimize sensitivity, the substrate concentration was decreased as compared to the HRP coupled assay in order to get a higher fraction of radioactive product. In the human SSAO assay, benzylamine concentration was 40 uM (0.2 uCi/mL). Data was analysed as above.

purified recombinantly expressed human SSAO, sequence (Q16853 29-763): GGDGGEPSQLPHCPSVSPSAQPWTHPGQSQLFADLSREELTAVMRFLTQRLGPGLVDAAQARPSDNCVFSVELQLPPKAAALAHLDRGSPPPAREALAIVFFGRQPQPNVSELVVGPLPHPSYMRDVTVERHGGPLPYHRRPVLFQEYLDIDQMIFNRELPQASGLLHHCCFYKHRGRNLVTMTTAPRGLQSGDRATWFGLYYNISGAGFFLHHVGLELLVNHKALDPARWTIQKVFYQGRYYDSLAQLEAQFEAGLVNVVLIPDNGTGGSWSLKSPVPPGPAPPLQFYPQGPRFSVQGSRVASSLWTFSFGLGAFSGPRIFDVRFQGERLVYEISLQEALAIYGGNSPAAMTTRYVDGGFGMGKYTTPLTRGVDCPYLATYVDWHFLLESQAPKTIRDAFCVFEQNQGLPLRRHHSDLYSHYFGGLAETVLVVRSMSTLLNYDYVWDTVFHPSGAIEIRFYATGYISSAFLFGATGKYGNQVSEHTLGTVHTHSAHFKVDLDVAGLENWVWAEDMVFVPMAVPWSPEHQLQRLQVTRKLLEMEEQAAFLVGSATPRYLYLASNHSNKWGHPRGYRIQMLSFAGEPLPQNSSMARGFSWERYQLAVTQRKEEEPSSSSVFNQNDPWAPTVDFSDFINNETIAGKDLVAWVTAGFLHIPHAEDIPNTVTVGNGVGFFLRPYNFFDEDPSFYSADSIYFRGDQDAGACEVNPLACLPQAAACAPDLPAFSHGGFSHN

SMILES | IC50 [nM]
Cc1ccc(-n2c(-c3cnc(N4CCOCC4)nc3)nc3ccncc32)cn1 [Example 58, 4-{5-[3-(6-Methylpyridin-3-yl)-3H-imidazo[4,5-c]pyridin-2-yl]pyrimidin-2-yl}morpholine] | 200 to 1200
Cc1ccc(-n2c(-c3ccc(N4CCOCC4)nc3)nc3ccncc32)cc1 [Example 63, 4-{5-[3-(4-Methylphenyl)-3H-imidazo[4,5-c]pyridin-2-yl]pyridin-2-yl}morpholine] | 200 to 1200
Cc1ccc(-n2c(-c3ccc(N4CCOCC4)nc3)nc3ccncc32)cn1 [Example 64, 4-{5-[3-(6-Methylpyridin-3-yl)-3H-imidazo[4,5-c]pyridin-2-yl]pyridin-2-yl}morpholine] | 200 to 1200
CN(C)c1ccc(-c2nc3ccncc3n2-c2ccc(F)cc2)cn1 [Example 71, 5-[3-(4-Fluorophenyl)-3H-imidazo[4,5-c]pyridin-2-yl]-N,N-dimethylpyridin-2-amine] | 200 to 1200
CN(C)c1ncc(-c2nc3ccncc3n2-c2ccc(Cl)cc2)cn1 [Example 72, 5-[3-(4-Chlorophenyl)-3H-imidazo[4,5-c]pyridin-2-yl]-N,N-dimethylpyrimidin-2-amine] | 200 to 1200
Fc1cc(-n2c(-c3cnc(N4CCOCC4)nc3)nc3ccncc32)ccc1Cl [Example 74, 4-{5-[3-(4-Chloro-3-fluorophenyl)-3H-imidazo[4,5-c]pyridin-2-yl]pyrimidin-2-yl}morpholine] | 200 to 1200
Fc1cc(Cl)ccc1-n1c(-c2cnc(N3CCOCC3)nc2)nc2ccncc21 [Example 77, 4-{5-[3-(4-Chloro-2-fluorophenyl)-3H-imidazo[4,5-c]pyridin-2-yl]pyrimidin-2-yl}morpholine] | 200 to 1200

The next lines start with the values.

IC50 [nM] | SMILES
200 to 1200 | Fc1ccc(-n2c(-c3ccc(N4CCOCC4)nc3)nc3ccncc32)cc1 [Example 54, 4-{5-[3-(4-Fluorophenyl)-3H-imidazo[4,5-c]pyridin-2-yl]pyridin-2-yl}morpholine]
200 to 1200 | Fc1ccc(-n2c(-c3cnc(N4CCOCC4)nc3)nc3ccncc32)c(Cl)c1 [Example 56, 4-{5-[3-(2-Chloro-4-fluorophenyl)-3H-imidazo[4,5-c]pyridin-2-yl]pyrimidin-2-yl}morpholine]
50 to 200 | Cc1ccc(-n2c(-c3cnc(N4CCOCC4)nc3)nc3ccncc32)cc1 [Example 57, 4-{5-[3-(4-Methylphenyl)-3H-imidazo[4,5-c]pyridin-2-yl]pyrimidin-2-yl}morpholine]
50 to 200 | Brc1ccc(-n2c(-c3cnc(N4CCOCC4)nc3)nc3ccncc32)cc1 [Example 59, 4-{5-[3-(4-Bromophenyl)-3H-imidazo[4,5-c]pyridin-2-yl]pyrimidin-2-yl}morpholine]
50 to 200 | Fc1ccccc1-n1c(-c2cnc(N3CCOCC3)nc2)nc2ccncc21 [Example 60, 4-{5-[3-(2-Fluorophenyl)-3H-imidazo[4,5-c]pyridin-2-yl]pyrimidin-2-yl}morpholine]
50 to 200 | Cc1cc(F)ccc1-n1c(-c2ccc(N3CCOCC3)nc2)nc2ccncc21 [Example 62, 4-{5-[3-(4-Fluoro-2-methylphenyl)-3H-imidazo[4,5-c]pyridin-2-yl]pyridin-2-yl}morpholine]
50 to 200 | FC(F)(F)c1ccc(-n2c(-c3ccc(N4CCOCC4)nc3)nc3ccncc32)cc1 [Example 66, 4-(5-{3-[4-(Trifluoromethyl)phenyl]-3H-imidazo[4,5-c]pyridin-2-yl}pyridin-2-yl)morpholine]
50 to 200 | Fc1ccc(-n2c(-c3ccnc(N4CCOCC4)c3)nc3ccncc32)cc1 [Example 73, 4-{4-[3-(4-Fluorophenyl)-3H-imidazo[4,5-c]pyridin-2-yl]pyridin-2-yl}morpholine]
50 to 200 | Fc1ccc(-n2c(-c3cnc(N4CCOCC4)nc3)nc3ccncc32)nc1 [Example 76, 4-{5-[3-(5-Fluoropyridin-2-yl)-3H-imidazo[4,5-c]pyridin-2-yl]pyrimidin-2-yl}morpholine]
50 to 200 | Fc1cc(Cl)ccc1-n1c(-c2ccc(N3CCOCC3)nc2)nc2ccncc21 [Example 80, 4-{5-[3-(4-Chloro-2-fluorophenyl)-3H-imidazo[4,5-c]pyridin-2-yl]pyridin-2-yl}morpholine]
